Test results taken from ChEMBL document CHEMBL1201862, “PubChem BioAssay data set” (2004).
Active and inactive are the calls of the source.

What was measured:
[1] = inhibitors of HIV Env-driven cell fusion, dose response, cherry-pick (AID 652057); format: functional, cell-based
[2] = ZM109 Env clade C HIV-1 fusion inhibitors, dose response, HeLa effector, CEM target cells, luciferase, cherry-pick (AID 652058); format: functional, cell-based
[3] = biological target: Glucose-6-phosphate 1-dehydrogenase (Homo sapiens, UniProt P11413); experiment: human G6PD enzyme inhibitors, dose response, selectivity assay for P. falciparum G6PD inhibitor project, biochemical, fluorescence (AID 504792); format: functional
Sequence of Glucose-6-phosphate 1-dehydrogenase (P11413 whole entry): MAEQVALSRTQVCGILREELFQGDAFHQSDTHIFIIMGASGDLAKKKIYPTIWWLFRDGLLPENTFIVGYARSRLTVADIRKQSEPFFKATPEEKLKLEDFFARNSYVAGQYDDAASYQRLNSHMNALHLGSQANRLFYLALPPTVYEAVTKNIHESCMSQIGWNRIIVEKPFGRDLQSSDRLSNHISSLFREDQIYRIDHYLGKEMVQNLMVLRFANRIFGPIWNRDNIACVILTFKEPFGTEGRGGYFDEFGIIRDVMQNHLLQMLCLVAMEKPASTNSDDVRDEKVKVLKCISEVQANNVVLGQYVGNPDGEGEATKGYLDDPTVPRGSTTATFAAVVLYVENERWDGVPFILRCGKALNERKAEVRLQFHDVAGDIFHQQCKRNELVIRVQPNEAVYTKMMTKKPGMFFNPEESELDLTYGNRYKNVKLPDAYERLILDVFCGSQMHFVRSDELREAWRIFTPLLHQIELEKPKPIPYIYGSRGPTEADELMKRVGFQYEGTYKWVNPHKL

[4] = biological target: Mitochondrial peptide methionine sulfoxide reductase (Bos taurus, UniProt P54149); format: functional;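 note: absorbance read-out, biochemical high-throughput dose-response screen for MsrA inhibitors, confirmatory; recombinant bovine MsrA coupled to E. coli TrxB with NADPH and selenocystamine; potency is for inhibitors of MsrA activity on DMSO substrate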
Sequence of Mitochondrial peptide methionine sulfoxide reductase (P54149 whole entry, the tested form may be a part): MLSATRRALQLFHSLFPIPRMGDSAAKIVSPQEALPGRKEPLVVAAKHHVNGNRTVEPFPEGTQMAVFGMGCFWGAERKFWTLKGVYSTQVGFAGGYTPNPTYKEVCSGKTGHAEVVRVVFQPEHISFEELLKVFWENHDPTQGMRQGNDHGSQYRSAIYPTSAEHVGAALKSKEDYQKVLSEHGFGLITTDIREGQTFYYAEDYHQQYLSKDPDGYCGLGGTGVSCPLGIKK

[5] = off-target signal loss in HeLa-CEM21 co-culture – HeLa F-luc CTL cells, cherry-picked, counter-screen for HIV-1 Env fusion inhibitor project, dose response (AID 652040); format: functional, cell-based;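 note: potency for signal decrease marking cytotoxic or nonspecific inhibition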
[6] = inhibitors of clade B AD8 Env fusion, dose response, cell-based, cherry-pick (AID 652062); format: functional;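 note: luciferase signal from cell-cell fusion driven by HIV-1 clade B AD8 Env; potency is for inhibitors of fusion seen as a drop in luminescence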
[7] = CEM21 lymphoblast cell cytotoxicity, dose response, cytotoxicity control for viral fusion inhibitor project, CellTiter-Glo luminescence, cherry-picked (AID 652042); format: functional, cell-based;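 note: potency for signal decrease meaning cytotoxicity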
Beta Lactamase = Beta Lactamase (Pseudomonas aeruginosa, UniProt Q932Y6); experiment: beta-lactamase reporter inhibitor potency, dose response, artefact control for NOD2-RIPK2 interaction inhibitor project, BLA reporter cells, FRET fluorescence (AID 651552); format: functional, cell-based
Sequence of Beta Lactamase (Q932Y6 whole entry, the tested form may be a part): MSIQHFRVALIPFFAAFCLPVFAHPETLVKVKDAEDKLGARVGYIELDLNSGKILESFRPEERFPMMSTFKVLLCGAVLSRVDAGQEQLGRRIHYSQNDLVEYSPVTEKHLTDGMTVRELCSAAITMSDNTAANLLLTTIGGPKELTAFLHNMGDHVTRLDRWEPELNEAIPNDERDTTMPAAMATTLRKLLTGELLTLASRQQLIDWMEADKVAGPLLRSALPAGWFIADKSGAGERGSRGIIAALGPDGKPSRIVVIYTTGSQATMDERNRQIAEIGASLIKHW

[8] = Fluorescence-based cell-based high throughput dose response assay for inhibitors of the interaction of nucleotide-binding oligomerization domain containing 2 (NOD2) and the receptor-interacting serine-threonine kinase 2 (RIPK2).; format: functional; conditions: Homo sapiens
[9] = Luminescence Cell-Based Dose Retest to Confirm Inhibitors of Cancer Stem Cells. [Related pubchem assays (depositor defined):AID2717, AID2721]; format: functional; conditions: Homo sapiens
Paired box protein Pax-8 = Paired box protein Pax-8 (Homo sapiens, UniProt Q06710); experiment: inhibitors of PAX8-driven TPO luciferase reporter, dose response, RMG-I cells, cherry-pick (AID 687027); format: functional, cell-based;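 note: luciferase reporter driven by Pax8 target thyroperoxidase promoter measured by SteadyGlo luminescence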
Sequence of Paired box protein Pax-8 (Q06710 whole entry): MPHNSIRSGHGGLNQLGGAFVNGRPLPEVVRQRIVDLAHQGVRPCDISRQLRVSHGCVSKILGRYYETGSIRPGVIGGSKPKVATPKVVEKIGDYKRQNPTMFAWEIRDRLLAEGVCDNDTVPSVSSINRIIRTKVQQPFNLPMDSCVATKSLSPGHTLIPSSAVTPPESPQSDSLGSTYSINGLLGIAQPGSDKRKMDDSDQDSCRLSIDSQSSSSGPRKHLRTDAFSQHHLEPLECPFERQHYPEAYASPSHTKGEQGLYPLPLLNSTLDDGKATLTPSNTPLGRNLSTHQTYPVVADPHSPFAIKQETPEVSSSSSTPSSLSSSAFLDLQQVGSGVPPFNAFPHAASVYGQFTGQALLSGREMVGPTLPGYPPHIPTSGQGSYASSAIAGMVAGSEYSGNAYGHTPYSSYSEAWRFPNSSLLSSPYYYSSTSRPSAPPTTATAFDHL

[10] = non-specific cell cytotoxicity, dose response, cytotoxicity control for PAX8 inhibitor project, plate reader, dry powder samples (AID 743021); format: functional, cell-based
[11] = biological target: T1, ATP-dependent translocase ABCB1 (Homo sapiens, UniProt P08183); experiment: ABCB1 efflux inhibitor potency, dose response, Jurkat-DNR cells, JC-1, flow cytometry, set 2 (AID 504569); format: functional; conditions: read-out: EC50_MICROM_;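 note: potency of pump inhibitors that raise cellular JC-1 green fluorescence up to the nicardipine level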
T1 sequence (P08183 whole entry): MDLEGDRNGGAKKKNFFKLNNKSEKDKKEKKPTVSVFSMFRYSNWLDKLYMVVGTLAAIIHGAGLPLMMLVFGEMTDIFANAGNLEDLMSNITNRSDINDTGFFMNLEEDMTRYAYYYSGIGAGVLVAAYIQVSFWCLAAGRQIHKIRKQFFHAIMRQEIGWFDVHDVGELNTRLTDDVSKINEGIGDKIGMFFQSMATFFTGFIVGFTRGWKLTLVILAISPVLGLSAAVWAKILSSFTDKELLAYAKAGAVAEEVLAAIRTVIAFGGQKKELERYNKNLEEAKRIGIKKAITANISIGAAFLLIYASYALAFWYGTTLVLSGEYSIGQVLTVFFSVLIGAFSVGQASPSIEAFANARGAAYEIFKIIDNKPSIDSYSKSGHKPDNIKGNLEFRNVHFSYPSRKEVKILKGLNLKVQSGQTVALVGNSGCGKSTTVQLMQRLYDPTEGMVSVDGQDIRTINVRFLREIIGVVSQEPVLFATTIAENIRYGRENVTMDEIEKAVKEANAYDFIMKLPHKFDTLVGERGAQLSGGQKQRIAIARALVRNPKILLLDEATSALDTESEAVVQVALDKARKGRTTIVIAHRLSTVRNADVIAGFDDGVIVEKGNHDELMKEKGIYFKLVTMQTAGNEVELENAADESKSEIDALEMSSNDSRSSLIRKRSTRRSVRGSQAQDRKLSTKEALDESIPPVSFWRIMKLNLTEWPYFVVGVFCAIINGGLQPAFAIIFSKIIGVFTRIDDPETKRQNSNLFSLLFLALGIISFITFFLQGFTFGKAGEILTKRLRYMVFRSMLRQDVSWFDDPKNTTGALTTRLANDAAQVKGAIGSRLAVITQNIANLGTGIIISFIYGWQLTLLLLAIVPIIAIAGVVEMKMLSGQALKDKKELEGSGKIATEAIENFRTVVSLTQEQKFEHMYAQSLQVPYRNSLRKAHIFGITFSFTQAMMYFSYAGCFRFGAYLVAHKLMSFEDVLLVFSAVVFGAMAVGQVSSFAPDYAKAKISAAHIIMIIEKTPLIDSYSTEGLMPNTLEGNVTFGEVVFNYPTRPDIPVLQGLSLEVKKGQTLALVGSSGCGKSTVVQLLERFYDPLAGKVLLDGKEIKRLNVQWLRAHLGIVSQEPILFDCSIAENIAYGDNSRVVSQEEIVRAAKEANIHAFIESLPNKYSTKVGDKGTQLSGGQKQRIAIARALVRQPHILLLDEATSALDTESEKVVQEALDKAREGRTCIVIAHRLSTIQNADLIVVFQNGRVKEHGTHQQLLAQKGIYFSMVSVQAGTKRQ

Melanocortin receptor 4 = Melanocortin receptor 4 (Homo sapiens, UniProt P32245); format: functional, cell-based;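 note: Cell-based assay with luminescence read-out, confirmatory dose-response testing for agonist activity of biased ligands at MC4R; human U2OS cells with tagged receptor and beta-arrestin; potency of agonists that increase receptor coupling to beta-arrestin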
Sequence of Melanocortin receptor 4 (P32245 whole entry): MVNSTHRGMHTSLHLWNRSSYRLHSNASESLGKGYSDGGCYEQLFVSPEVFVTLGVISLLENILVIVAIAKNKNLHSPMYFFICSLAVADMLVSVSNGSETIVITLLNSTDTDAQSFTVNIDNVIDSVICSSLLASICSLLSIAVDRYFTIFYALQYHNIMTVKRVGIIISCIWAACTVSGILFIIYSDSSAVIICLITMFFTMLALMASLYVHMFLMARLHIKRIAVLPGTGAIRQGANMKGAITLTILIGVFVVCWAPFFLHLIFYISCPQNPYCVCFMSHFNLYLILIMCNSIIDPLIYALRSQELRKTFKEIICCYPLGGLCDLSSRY

[12] = HEp-2 cell cytotoxicity, dose response, cytotoxicity control for RSV inhibitor project, HTS (AID 2410); format: functional; conditions: human respiratory syncytial virus
[13] = biological target: T1, ATP-dependent translocase ABCB1; experiment: ABCG2 efflux pump inhibitor potency, dose response, Ig-MXP3 cells, JC-1, flow cytometry, set 2 (AID 504566); format: functional; conditions: read-out: EC50_MICROM_;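 note: flow cytometry median green fluorescence of retained JC-1 dye; potency of efflux pump inhibition measured as rising substrate retention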

Question: With `Cc1nc2c(o1)C(=O)c1ccccc1C2=Nc1ccccc1` as the compound, how does the AC50 [1] read?
Answer: 5.92 µM (active)

Question: What about the AC50 [2] of the same compound?
Answer: 3.45 µM (active)

Question: What about the IC50 [3] of the same compound?
Answer: > 80 µM (inactive)

Question: What about the IC50 [4] of the same compound?
Answer: 155 µM (inactive)

Question: What about the AC50 [5] of the same compound?
Answer: 4.25 µM (active)

Question: What about the AC50 [6] of the same compound?
Answer: 2.74 µM (active)

Question: And the AC50 [7]?
Answer: 4.8 µM (active)

Question: With `CC(C)(C)[C@H](N)C(=O)N[C@H]1CCC2C3CC=C4C[C@@H](O)CC[C@]4(C)C3CC[C@@]21C` (stereo partly specified) as the compound, how does the IC50 (Beta Lactamase) read?
Answer: 19.5 µM (inactive)

Question: What about the IC50 [8] of the same compound?
Answer: 17.7 µM (inactive)

Question: And the AC50 [9]?
Answer: 3.67 µM (active)

Question: What about the AC50 (Paired box protein Pax-8) of the same compound?
Answer: 9.31 µM (active)

Question: And the AC50 [10]?
Answer: 40.7 µM (active)

Question: Which results are given for `Cc1cc(N2CCN(C(=O)c3ccco3)CC2)n2nc(-c3cccc(Cl)c3)cc2n1`?
Answer: EC50 [11]: 5.05 µM (inactive); EC50 (Melanocortin receptor 4): > 89.2 µM (inactive); CC50 [12]: 34.7 µM (active); EC50 [13]: 2.24 µM (active)
